Laboratory results taken from patent US10597649B2, “Tau protease compositions and methods of use” (Oligomerix, Inc., priority 2011, dated 2020).
Each block holds one compound with its values, some of them ahead of it.

Key:
tau 4R2N trimer protease = target: T1, tau 4R2N trimer protease (Homo sapiens, UniProt P10636); experiment: Peptide assay (tau peptide 335-353, reverse-phase HPLC) used to screen serine protease inhibitors; format: biochemical; design: inhibition of cleavage of the peptide (FIG. 14D) / inhibition of cleavage of the peptide (FIG. 14F): dose or concentration left out as unconfirmed; details: 1 hr at room temperature before peptide substrate
T1 construct: Stabilization buffer enables production of full length monomer, dimer and trimer for tau protease; made in house; host or cells: E. coli BL21 (DE3) Gold
Description: N-terminal sequencing of fragments using mass spectrometry identified autoproteolytic cut sites. In particular, cutting at the Lys340-Ser341 (340KS341) cut site occurred readily. Therefore, a 19-amino acid peptide corresponding to amino acids 335G to 353L of tau protein was synthesized that contained the KS cut site (340KS341). The reaction was monitored by reverse-phase high-pressure liquid chromatography (HPLC). […] An asterisk marks a non-specific contaminant that was used as a marker. […] 10 μg of tau peptide 335-353 ([…]) (SEQ ID NO:19) was custom synthesized by Genscript (Piscataway, N.J., USA) and 1 mg was dissolved in 1 mL of buffer (25 mM Tris-HCl pH 7.4). […] of peptide was incubated with 11 μg of tau trimer protease in 30 μL buffer 20 hr at 37° C. and analyzed by HPLC [SystemGold® 32Karat™ LC-CE System, Beckman Coulter, Inc., (Indianapolis, Ind.)] using a linear gradient of acetonitrile in 0.1% TFA 0-60% acetonitrile on an analytical C18 column (12.5 cm×2.1 mm, 5 μm, (Supelco, Bellefonte, Pa., USA). 30 μg of peptide was incubated without tau protease as a negative control and analyzed with the same method;
The peptide assay for tau 4R2N trimer activity described in FIG. 5 was used to screen a series of serine protease inhibitors. 1 mM AEBSF was incubated with tau 4R2N trimer for 1 hr at room temperature before addition of the peptide substrate. […] The asterisk indicates an artifactual peak unrelated to the peptide;

Tau 4R2N oligomer ladder = target: T2, Tau 4R2N oligomer ladder (Homo sapiens, UniProt P10636); experiment: FP-TAMRA serine hydrolase probe labeling of oligomerized tau 4R2N; format: biochemical; details: pre-treated with 0, 0.1, 1.0 or 10.0 mM AEBSF for 1 hr; 5 micromolar FP-TAMRA, 4 hrs
T2 construct: Stabilization buffer enables production of full length monomer, dimer and trimer for tau protease; made in house; host or cells: E. coli BL21 (DE3) Gold
Description: Tau 4R2N oligomer ladder was labeled with fluorophosphonate (FP) linked to a fluorescent TAMRA tag (ThermoFisher Scientific), a probe that is specific for active site serines in serine proteases. FP probes specifically label the serines of enzymatically-active serine hydrolases. The serine protease-specific inhibitor, AEBSF, was used in a dose-response study to determine whether tau was being specifically labeled with FP. […] Samples were run without reductant or with reductant as indicated. For labeling, 10 μg of tau 4R2N was labeled with 5 micromolar FP-TAMRA in 10 μL buffer (25 mM Tris-HCl pH 7.4, 150 mM NaCl, 0.5 mM EDTA, 0.1% NP-40, 5% glycerol) for 4 hrs at room temperature in the dark. Samples were pre-treated with 0, 0.1, 1.0, or 10.0 mM AEBSF for 1 hr at room temperature to block the active-site serine before the addition of the FP-TAMRA probe. Samples were divided in half and run with sample buffer with or without reductant as indicated;
4-(2-Aminoethyl)benzenesulfonyl fluoride hydrochloride (AEBSF) was prepared fresh in anhydrous DMSO. (Sigma Chemical Co.) A8456-≥97%, Molecular Weight: 239.69; 9 mg AEBSF/187.2 μL DMSO=200 mM. Serine hydrolase FP probes were equilibrated to room temperature in pouch with desiccant. Serine hydrolase FP probe was dissolved in 100 μL of DMSO to make a 0.1 mM stock solution. Samples were aliquotted in 5-μL/tubes and store in −80° C. freezer. […]

tau 4R2N trimer [1] = target: T3, tau 4R2N trimer (Homo sapiens, UniProt P10636); experiment: Tau 4R2N trimer incubated overnight with protease inhibitors, fragmentation read by SDS-PAGE; format: biochemical; details: overnight at 37° C., inhibitors at low and high concentrations; chymostatin 10 and 100 μM
T3 construct: Stabilization buffer enables production of full length monomer, dimer and trimer for tau protease; made in house; host or cells: E. coli BL21 (DE3) Gold
Method: Tau 4R2N trimer was incubated overnight at 37° C. with and without serine-specific protease inhibitors (Sigma Aldrich, St. Louis, Mo.). The incubation volumes were 3.45 microliter at a final concentration of 0.145 mg/mL tau 4R2N trimer.
Tau 4R2N trimer was incubated overnight at 37° C. with and without serine-specific protease inhibitors at low and high concentrations.
Tau trimer protease was incubated with and without protease inhibitor cocktail overnight containing serine protease, amino-peptidase, cysteine protease and aspatic protease inhibitors.
For each sample, 0.45 μg of tau 4R2N trimer was incubated at 0.2 mg/mL overnight at 37° C. in the presence of various freshly prepared protease inhibitors. Non-incubated control was kept on ice overnight at 4° C. Next day, 2× sodium dodecyl sulfate sample buffer with reductant was added to each sample and loaded onto a 4-20% gradient Tris-HCl Criterion Gel (Bio-Rad).
Protease inhibitors targeted include serine proteases, amino-peptidases, cysteine proteases, metallo-proteases, and aspartic proteases.

Tau 4R2N [2] = target: T4, Tau 4R2N (Homo sapiens, UniProt P10636); experiment: NEM treatment of tau 4R2N monomer, incubation at 37° C., non-reducing SDS-PAGE; format: biochemical; details: 1 mM NEM for 2 hr
T4 construct: Stabilization buffer enables production of full length monomer, dimer and trimer for tau protease; made in house; host or cells: E. coli BL21 (DE3) Gold
Method: FIG. 2 illustrates the formation of disulfide mediated tau oligomers preceded truncation and higher order aggregate formation. Tau 4R2N oligomers were purified by continuous-elution electrophoresis and monomer was further purified by pooling and buffer exchanging using spin columns with a molecular weight cut-off of 7000 Da into 25 mM Tris-HCl pH 7.4. A small amount of the monomer was treated with freshly-prepared NEM at a final concentration of 1 mM for 2 hr at ambient temperature. For incubations, monomer treated and untreated with NEM was allowed to incubate at 37° C. over the weekend (approximately 50 hrs), followed by separation on 4-20% sodium dodecyl sulfate (SDS)-polyacrylamide gel electrophoresis (PAGE) (SDS-PAGE) Tris-HCl gel (Bio-Rad Catalogue #345-0033 Hercules, Calif., USA) without reductant. Tau 4R2N—Disulfide-mediated oligomer formation preceded truncation, and truncation preceded higher-order aggregation. Aggregate formation was time dependent.

Aβ = details: clinical endpoint in Phase III; cited from earlier work
tau 4R2N trimer [3] = target: T3, tau 4R2N trimer; experiment: SDS titration for tau protease stabilization buffer; format: biochemical
Method: (§1) Purified recombinant human tau 4R2N was prepared as described in the flow chart. Monomer, dimer and trimer species were purified preparative electrophoresis from a tau 4R2N preparation that had formed oligomers. The electrophoresis buffer contained 0.1% SDS which inhibited the proteolytic activity. Fractions containing the tau species were buffer exchanged into 25 mM Tris-HCl pH 7.4 using and Amicon ultrafiltration device (Merck Millipore, Billerica, Mass.), which led to restoration of tau autoproteolytic activity. Protein concentrations of the preparations were determined using the BCA kit (ThemoFisher Scientific). Samples were run on a pre-cast 4-20% polyacrylamide Tris-HCl gel (BioRad, Hercules, Calif.) without using reductant in order to visualize the disulfide mediated oligomers. The gel was stained with GelCodeBlue Safe (ThermoFisher Scientific, Rockford, Ill.). Lane 1: 5.2 μg of tau 4R2N oligomer standard; Lane 2: 2 microliter of monomer fraction before buffer exchange; Lane 3: 0.5 μg monomer after buffer exchange; Lane 4: […] of dimer fraction before buffer exchange; Lane 5: 0.5 μg dimer after buffer exchange; Lane 6: 20 μL trimer fraction before buffer exchange; Lane 7: 0.5 μg trimer after buffer exchange.
This example describes the development and characterization of a stabilization buffer for preserving the activity of tau protease. […]

Tau 4R2n 241-340 (TP-99) = target: T5, Tau 4R2n 241-340 (TP-99) (Homo sapiens, UniProt P10636); experiment: TP-99 peptide digest HPLC assay with added zinc chloride; format: biochemical; details: 100 μM zinc chloride, 44 hr at 37° C.
T5 construct: initiating methionine (N); made in house; host or cells: E. coli BL21 (DE3) Gold
Method: As in FIG. 7, cleavage of the peptide substrate for tau protease Tau 4R2N (amino acids 335-353) was used to monitor activity using reverse-phase HPLC. […] The large peak in the lower trace indicates intact peptide which is greatly diminished in the upper trace and replaced with two smaller peaks F1 and F2 that represent fragments generated by TP-99. […] The asterisk indicates an artifact peak that is derived from the incubation tube. Ten microgram of Tau peptide 335-353 (OP-001) was incubated without TP-99, with 25 μL, TP-99 oligomer ladder, or with additional 100 μM zinc chloride, 44 hr at 37° C. in 30 μL buffer (25 mM Tris-HCl pH 7.4). Samples were analyzed by reverse phase HPLC (SystemGold® 32Karat™ LC-CE System, Beckman Coulter, Inc., (Indianapolis, Ind.)) using a linear gradient of acetonitrile in 0.1% TFA 0-60% acetonitrile on an analytical C18 column (12.5 cm×2.1 mm, 5 μm, (Supelco);

Tau 4R2N [4] = target: T4, Tau 4R2N; experiment: Autoproteolytic activity of purified tau monomer, dimer and trimer (SDS-PAGE); format: biochemical; details: for degradation in contamination control study (Example 3): 0.35 μg, overnight at 37° C., equal sample volumes from purification; for autoproteolytic activity (Example 1): after buffer exchange into 25 mM Tris-HCl pH 7.4, incubation at 37° C.
Method: This example describes the identification of the autoproteolytic activity of tau oligomers.
as §1
Tau 4R2N undergoes autoproteolytic cleavage (self-cleavage) when it forms disulfide-mediated oligomers upon incubation. Tau autoproteolyic activity co-purified with the dimer and trimer species. The amount of autoproteolytic activity was greatest with trimer which fragmented to the extent where no full size trimer remained after incubation. […] It was also shown that Tau autoproteolytic activity co-purified with dimer and trimer species. […] Full-length trimer digested completely into smaller fragments, and upon incubation, monomer formed an oligomeric ladder that produced a low level of autoproteolytic activity.
(§2) Monomer, Dimer, and Trimer of Tau 441 were purified under non-reducing conditions using continuous-elution electrophoresis. Fractions of each oligomer sample were pooled and buffer exchanged into stabilization buffer using an Amicon spin concentrator with a molecular weight cut-off of 30,000 daltons. 0.35 μg of each sample was incubated overnight at 37° C. while non-incubated control was kept on ice at 4° C. Next day, 2×SDS sample buffer without reductant was added to each sample and loaded onto a 4-20% gradient Tris-HCl Criterion Gel (Bio-Rad, Hercules, Calif.).
as §2, with “This example presents results from a contamination control study of tau protease. Monomer,” for “Monomer,”, “2× sodium dodecyl sulfate” for “2×SDS”
Lane 1—tau oligomer ladder standard; Lane 2—empty; Lane 3—purified monomer no incubation (fraction from purification plate); Lane 4—purified monomer without incubation; Lane 5—purified monomer with incubation; Lane 6—purified dimer without incubation; Lane 7—purified dimer with incubation; Lane 8—purified trimer without incubation; purified trimer with incubation overnight at 37° C. Lanes 3-9 were treated with sample buffer containing β-mercaptoethanol (BME).

T3 sequence (P10636 1-441 isoform P10636-8): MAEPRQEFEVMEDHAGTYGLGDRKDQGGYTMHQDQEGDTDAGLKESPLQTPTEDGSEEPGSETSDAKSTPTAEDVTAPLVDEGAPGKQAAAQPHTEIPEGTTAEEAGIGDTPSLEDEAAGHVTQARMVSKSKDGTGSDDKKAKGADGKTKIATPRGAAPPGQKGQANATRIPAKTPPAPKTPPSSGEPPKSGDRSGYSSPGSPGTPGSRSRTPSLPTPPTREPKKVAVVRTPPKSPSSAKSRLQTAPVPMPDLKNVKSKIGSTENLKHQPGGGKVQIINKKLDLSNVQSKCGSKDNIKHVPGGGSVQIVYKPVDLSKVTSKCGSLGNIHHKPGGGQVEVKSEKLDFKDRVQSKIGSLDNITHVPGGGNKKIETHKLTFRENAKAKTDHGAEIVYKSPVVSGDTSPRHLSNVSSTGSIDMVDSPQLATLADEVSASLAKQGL
T1 sequence (P10636 1-441 isoform P10636-8): as above
T4 sequence (P10636 1-441 isoform P10636-8): as above
T5 sequence (P10636 with tags, fused parts or gaps): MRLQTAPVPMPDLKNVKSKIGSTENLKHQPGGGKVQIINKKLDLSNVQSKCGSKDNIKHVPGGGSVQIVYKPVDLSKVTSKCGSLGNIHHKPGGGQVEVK
T2 sequence (P10636 1-441 isoform P10636-8): as the sequence (P10636 1-441 isoform P10636-8) above

Compound: Cl.NCCc1ccc(S(=O)(=O)F)cc1 [AEBSF, 4-(2-Aminoethyl)benzenesulfonyl fluoride hydrochloride]
inhibition of tau 4R2N trimer protease activity, peptide assay (FIG. 14A) (tau 4R2N trimer protease; 1 mM AEBSF): inhibited
FP-TAMRA labeling of tau 4R2N (Tau 4R2N oligomer ladder): inhibited in a dose-dependent manner

Compound: CC(C)C[C@H](NC(=O)[C@@H](NC(=O)N[C@@H](Cc1ccccc1)C(=O)O)[C@@H]1CCN=C(N)N1)C(=O)N[C@H](C=O)Cc1ccccc1 [Chymostatin]
inhibitory effect on tau 4R2N trimer, serine protease inhibitor panel (FIG. 12) (tau 4R2N trimer [1]): greatest inhibitory effect
inhibition of cleavage of the peptide (FIG. 14D) (tau 4R2N trimer protease; chymostatin): strongly inhibited

Compound: CCN1C(=O)C=CC1=O [NEM, N-ethylmaleimide]
disulfide-mediated oligomer formation (Tau 4R2N [2]; then about 50 hrs at 37° C.): irreversibly inhibited
autoproteolytic activity (Tau 4R2N [2]; then incubation at 37° C.): loss of autoproteolytic activity
higher order aggregate formation (Tau 4R2N [2]; then incubation at 37° C.): inhibition of higher order aggregate formation

Compound: C[C@@H](C(=O)O)c1ccc(-c2ccccc2)c(F)c1 [R-flurbiprofen]
Status (Aβ): Failed to meet

Compound: CCCCCCCCCCCCOS(=O)(=O)[O-].[Na+] [SDS, sodium dodecyl sulfate]
minimal inhibitory concentration for the enzymatic activity (tau 4R2N trimer [3]; 0.3 μg tau 4R2N trimer, overnight at 37° C., 50 mM TrisHCl pH 7.4): 0.002%
proteolytic activity in electrophoresis buffer (tau 4R2N trimer [3]; 0.1% SDS): inhibited

Compound: CC(C)[C@H](O)C(=O)N[C@@H](C)C(=O)N[C@@H]1C(=O)N(C)CCc2ccccc21 [Semagacestat]
Status (Aβ): Failed to meet

Compound: NCCCS(=O)(=O)O [Tramiprosate]
Status (Aβ): Failed to meet

Compound: [Cl-].[Cl-].[Zn+2] [zinc chloride]
activity of TP-99 on tau peptide 335-353 (Tau 4R2n 241-340 (TP-99)): increased the activity

Compound: gabexate mesylate
inhibition of cleavage of the peptide (FIG. 14F) (tau 4R2N trimer protease; gabexate mesylate): did not significantly inhibit

degradation in contamination control study (Example 3) (Tau 4R2N [4]): minimal cleavage
autoproteolytic activity (Example 1) (Tau 4R2N [4]): showed autoproteolytic activity
Compound: tau 4R2N dimer: purified disulfide-mediated dimer species of recombinant human tau 4R2N

degradation in contamination control study (Example 3) (Tau 4R2N [4]): minimal cleavage
autoproteolytic activity (Example 1) (Tau 4R2N [4]): minor activity
Compound: tau 4R2N monomer: purified monomer species of recombinant human tau 4R2N
